A short description of data set [1]: vital parameters of live anesthetized rats monitored during isometric force measurement. The data set is classed as in vivo. Particulars: anesthetized rat; for Maximum change of vital parameters (%) blood flow: neck arteries. Here is the method: The maximum isometric force induced by the stimulation was determined after intraperitoneal injection of some of the compounds of the invention. During the measurement, the following parameters of live anesthetized rats were continuously monitored: • a) heart rate • b) blood flow in the neck arteries • c) respiratory frequency • d) blood oxygen saturation ratio

In data set [2] the test system is isolated rabbit skeletal muscle myosin (skeletal). Put plainly: actomyosin steady state ATPase measurement, skeletal muscle myosin. The data set is classed as biochemical. From the text:
[…]; (ii) the concentration required for semi-maximal inhibition.

Molecules are shown by their SMILES.

Regarding `O=C1c2ccsc2N=C2N(c3ccc(N4CCOCC4)cc3)CCC12O` (centres unmarked) [Compound 188, 9-Hydroxy-12-[4-(morpholin-4-yl)phenyl]-4-thia-2,12-diazatricyclo[7.3.0.0^3,7]dodeca-1,3(7),5-trien-8-one], in data set [1] (1 mg i.p.), the “Maximum change of vital parameters (%) heart rate” value (shortened to “Maximum change … (%) heart rate”) is 3%, the “Maximum change of vital parameters (%) oxygen saturation” value (from here on “Maximum change … (%) oxygen saturation”) is −16%, the “Maximum change of vital parameters (%) respiratory frequency” value (“Maximum change … (%) respiratory frequency” below) was −18% and the “Maximum change of vital parameters (%) blood flow” value (shortened to “Maximum change … (%) blood flow”) is recorded as 15%. In data set [1] (3 mg i.p.), the “Maximum change … (%) heart rate” value is −3%, the “Maximum change … (%) oxygen saturation” value was −3%, the “Maximum change … (%) respiratory frequency” value was found to be 5% and the “Maximum change … (%) blood flow” value was −5%. Besides, in data set [1] (6 mg i.p.), the “Maximum change … (%) heart rate” value is recorded as −9%, the “Maximum change … (%) oxygen saturation” value was −1%, the “Maximum change … (%) respiratory frequency” value is given as −1% and the “Maximum change … (%) blood flow” value was −1%. Further, in data set [1] (9 mg i.p.), the “Maximum change … (%) heart rate” value is on record as −12%, the “Maximum change … (%) oxygen saturation” value is −27%, the “Maximum change … (%) respiratory frequency” value was −40% and the “Maximum change … (%) blood flow” value was 9%. The % inhibition (as a rule, the relative decrease from the control value, in per cent) at 5 μM (or 10 μM if racemate) Skeletal in data set [2] (5 μM (10 μM if racemate), ATPase activity) came to 50%. The “% inhibition at 50 μM (or 100 μM if racemate) Skeletal” value in data set [2] (50 μM (100 μM if racemate), ATPase activity) stood at 95%. Further, it took 5 µM to reach half-maximal inhibition in data set [2] (concentration required for semi-maximal inhibition of ATPase) (IC50). Further, in data set [2] (maximum value of inhibition of ATPase activity), the “% inhibition. complete Skeletal” value is 100%.

The record behind these values is patent US12421243B2, “Pharmaceutically effective compounds inhibiting selectively the myosin 2 isoforms” (PRINTNET KERESKEDELMI ÉS SZOLGÁLTATÓ KFT., priority 2018, dated 2025).
